The values below come from patent US12616203B2, “Use of 3-isoxazolidinones compounds as selective herbicides” (FMC Corporation, priority 2014, dated 2026).

The test system of assay [1] is weeds. In words: Ex20 PRE greenhouse. In kind it is in vivo. The settings on record: weed and rate in the words. The text has this:
Herbicides: • 2,4 DC-21 (36.7% CS): 125, 170, 210, or 250 g ai/ha alone and as tank-mix with dimethenamid-P • Dimethanamid-P (Outlook, 63.9%): 250, 375, 500 g ai/ha in combination with 2,4 DC and alone, additional treatment alone at 750 g ai/ha. • Metazachlor (Butisan 43.1%): 500 g ai/ha
Herbicides included as standards for comparison were metazachlor plus dimethenamid-P (500 g) as tank mix combination. […] Treatments were replicated 3 times. […] Thereafter flats were watered and fertilized routinely.

Another assay concerns Wild oat. Kind of assay: Ex12 PRE 2,4-DC + dimethenamid-P, % control 28 DAT, Colby. The class given is in vivo, Avena fatua. As for the experimental part:
(§1) The tested weeds include: wild buckwheat (Polygonum convolvulus, POLCO), velvetleaf (Abutilon theophrasti, ABUTH), cheat (Bromus secalinus, BROSE), wild oat (Avena fatua, AVEFA), radish (Raphanus sativus, RAPSN), corn poppy (Papaver rhoeas, PAPRH), yellow foxtail (Setaria pumila, SETLU), Italian ryegrass (Lolium perenne ssp. multiflorum, LOLMU). The tested crop was Oilseed rape.
(§2) This greenhouse study was conducted to assess the preemergence (PRE) weed control and oilseed rape tolerance with 2,4 DC (CS 36.7%) and dimethenamid-P (Outlook®, 63.9%) tank-mix combinations.
(§3) Metazachlor (Butisan, 43.1%) plus dimethenamid-P applied as tank mix at 500 g each was applied as commercial standard. Treatments were replicated 3 times and flats were watered after planting but before the treatment and then lightly watered after treatment application. Thereafter flats were watered and fertilized routinely.

In another assay the test system is Wild buckwheat. The assay is described as above. The class given is in vivo, Polygonum convolvulus. As for the experimental part:
as §1, §2, §3

In another assay the test system is Common ragweed. In words: Ex16 PRE 2,4-DC + pyroxasulfone, % control 28 DAT, Colby. In kind it is in vivo, Ambrosia artemisiifolia. The text has this:
(§4) To determine PRE efficacy, five levels of 2,4 DC (36.7% CS) 0, 125, 170, 210, or 250 g ai/ha and five levels of pyroxasulfone (KIH485-85WG) 0, 50, 65, 80, or 95 g ai/ha were applied either alone or as tank-mix. Additional treatments consisted of premix of pyroxasulfone plus fluthiacet-methyl (Anthem™ 23.3%) at 169.9 g ai/ha, S-metolachlor (Dual II Magnum, 82.4%) at 1388 g, and tank-mix of mesotrione (Callisto, 40%) at 123 g plus S-metolachlor at 1252 g. […] Treatments were applied before the emergence of black nightshade, giant foxtail, green foxtail, yellow foxtail, large crabgrass, kochia, redroot pigweed, common ragweed, and barnyardgrass.
(§5) Flats were watered and fertilized routinely after treatment application. Each treatment was replicated three times.

The test system of assay [2] is weeds. In words: Ex16 PRE greenhouse. The class given is in vivo. To be noted: weed and rate in the words.
From the text: as §4, §5

Assay [3] deals with weeds. Kind of assay: Ex13 PRE greenhouse. The class given is in vivo. To be noted: 28 DAT, weed and rate in the words. From the text: Pyroxasulfone (KIH-485, 85%) at 74.3 g ai/ha, pendimethalin (Prowl 3.3EC, 37.4%) at 1200 g ai/ha, or a premix of chlorsulfuron plus metsulfuron-methyl (Report Extra, 75%) at 15.8 g ai/ha were applied as commercial standards. […] Treatments were replicated 3 times and flats were watered after planting before the treatment and lightly watered after treatment application. Thereafter flats were watered and fertilized routinely.

The next assay deals with Morningglory sp. In words: Ex38 PRE 2,4-DC + pyroxasulfone, % control 28 DAT, Colby. The class given is in vivo, Ipomea spp. To be noted: PRE. The text has this:
Pyroxasulfone plus fluthiacet-methyl (ANTHEM™, 23.3%) applied at 165 g ai/ha was included as a standard for comparison. […] Thereafter flats were watered and fertilized routinely.

The subject of assay [4] is weeds. In words: Ex24 PRE greenhouse. To be noted: weed and rate in the words. In kind it is in vivo.
From the text: The tested weeds include Giant foxtail (Setaria faberi, SETFA), green foxtail (Setaria virdis, SETVI), yellow foxtail (Setaria pumila, SETLU), black nightshade (Solanum nigrum, SOLNI), kochia (Kochia scoparia, KCHSC), redroot pigweed (Amaranthus retroflexus, AMARE), common ragweed (Ambrosia artemisiifolia, AMBEL), barnyardgrass (Echinochloa crus-galli, ECHCG), large crabgrass (Digitaria sanguinalis, DIGSA).
as §4, with “DC-21” for “DC”, “Magnum®,” for “Magnum,”, “(Callisto®,” for “(Callisto,”, “bamyardgrass. […] Flats were watered and fertilized routinely after treatment application. Each treatment was replicated three times.” for “barnyardgrass.”

For assay [5], the system named is weeds; Wheat, barley, and oil seed rape (OSR). In words: Ex19 PRE greenhouse. In kind it is in vivo. To be noted: rate in the words. From the text:
In this study, the crops tested included Wheat, barley, and oil seed rape (OSR).
To determine weed efficacy and wheat, barley or OSR selectivity, 2,4 DC (CS 36.7%) and Diflufenican (CS 19.5%) were applied preemergence either alone or as tank-mix partners at the following rates. 2,4 DC was applied at 125, 170, 210 and 250 g ai/ha while Diflufenican was applied at 50, 75, and 100 g ai/ha. Pyroxasulfone (KIH-485, 85%) at 74.3 g ai/ha, pendimethalin (Prowl 3.3EC, 37.4%) at 1200 g ai/ha, or a premix of chlorsulfuron plus metsulfuron-methyl (Report Extra, 75%) at 15.8 g ai/ha were applied as commercial standards.
Herbicides included as standards for comparison were pyroxasulfone, pendimethalin, and a pre mix of chlorsulfuron plus metsulfuron methyl, all applied at labeled rates as indicated above. Treatments were replicated 3 times. […] Thereafter flats were watered and fertilized routinely.

The mark [6] stands for this setting: dimethenamid-P alone 250 g ai/ha.
Setting [7] is: dimethenamid-P alone 375 g ai/ha.
Where [8] appears, read: dimethenamid-P alone 500 g ai/ha.

As to `COC[C@H](C)N(C(=O)CCl)c1c(C)csc1C` [Dimethenamid-P, dimethenamid-P, reference compound], the “weed control in words” value in the assay on weeds [1] was “alone controlled redroot pigweed, giant foxtail, and goosegrass at all rates; common chickweed at ≥375 g; shepherd's-purse at ≥500 g; and Canada thistle at 750 g”. Moreover, the Y is reported as 66% with Wild oat (setting [6]); 73% in the assay on Wild oat (setting [7]); 90% with Wild oat (setting [8]); 32% in the assay on Wild buckwheat (setting [6]); 70% in the assay on Wild buckwheat (setting [7]); 63% with Wild buckwheat (setting [8]).

On to `Cn1nc(C(F)(F)F)c(CS(=O)(=O)C2=NOC(C)(C)C2)c1OC(F)F` [Pyroxasulfone, pyroxasulfone, reference compound], for which the Y in the assay on Common ragweed (pyroxasulfone alone 50 g ai/ha) was 40%; in the assay on Common ragweed (pyroxasulfone alone 65 g ai/ha), 53%; with Common ragweed (pyroxasulfone alone 80 g ai/ha), 40%; in the assay on Common ragweed (pyroxasulfone alone 95 g ai/ha) it was 70%. Further, the “weed control in words” value in the assay with weeds [2] was “controlled all species except common ragweed which was not controlled at any rate”; in the assay on weeds [3], “at 74.3 g controlled all weeds except tall morningglory and shepherd's-purse”; in the assay on weeds [4], “controlled all species except common ragweed which was not controlled at any rate”. Moreover, the “Y (% control, pyroxasulfone alone)” value in the assay with Morningglory sp. (pyroxasulfone 30 g ai/ha) came out at 9%; in the assay on Morningglory sp. (pyroxasulfone 60 g ai/ha), 60%; in the assay on Morningglory sp. (pyroxasulfone 90 g ai/ha) it was 65%. The “weed control / crop safety in words” value in assay [5] is “controlled all weeds except field violet and was safe on wheat only”.
